Ends that are not written are not given here.
Assays:
[1] = system: norovirus VLPs (GII.4, GII.3, GII.17); assay: In vitro selection by cDNA display against VLPs with appearance frequency analysis of sequences; conditions: count among peptide aptamer sequences obtained after in vitro selection cycles (7 cycles GII.4, 5 cycles GII.3 and GII.17)
Method: The constructed cDNA display and VLPs were incubated in 100 μL of a dialysis selection buffer (20 mM HEPES (pH 7.4), 150 mM NaCl, and 0.05% s Tween 20) at the concentrations shown in Table 9 below at 25° C. for 30 minutes. Subsequently, the resultant was diluted to 1 mL with the dialysis selection buffer, and was put in Float-A-Lyzer G2 Dialysis Device CE, 1000kD MWCO (manufactured by Spectrum Laboratories, Inc.) and was dialyzed with 1 L of the dialysis selection buffer as the external solution at 25° C. During the dialysis, the external solution was replaced with new one 3 times every 2 hours, and the dialysis was performed overnight (for 8 hours) after the 4th replacement. The dialysis product was concentrated with Amicon Ultra 100K (manufactured by Merck Millipore S.A.S.) at 14,000×g for 5 minutes.
To an immunoplate (C-BOTTOM, CLEAR, MICROLON (registered trademark), HIGH BINDING, manufactured by Greiner Bio-One), 100 μL of 3 μg/mL GII.3 or GII.17 VLP solution was added and immobilization was performed at 4° C. overnight. Subsequently, the solution was discarded, and 200 μL of a blocking agent (EMD Millipore™ Blok™ NSB Blocking agents, Thermo Fisher Scientific) was added, followed by gently stirring at room temperature for 2 hours for blocking. On this occasion, wells not immobilizing the VLP were also subjected to similar blocking to be used in preselection.
The solution was discarded from the wells, the wells were washed with 200 μL of a wash buffer (10 mM Hepes (pH 7.4), 150 mM NaCl, and 0.05% Tween 20) three times, and 100 μL of cDNA display (constructed from 1.5 pmol of mRNA-linker) was then put in the wells not immobilizing the VLP, followed by gently stirring at room temperature for 30 minutes to perform preselection. Subsequently, the supernatant containing cDNA display that had not bound to the blocking agent was put in the wells immobilizing the VLP, followed by gently stirring at room temperature for 30 minutes to be bound to the VLP. The supernatant was discarded, washing with 100 μL of the wash buffer was performed four times, and 100 μL of a 5′ SDS solution was then added, followed by incubation at 50° C. for 15 minutes to elute the bound cDNA display.
Subsequently, the VLP-cDNA display complex obtained above was diluted to 100 μL with a dialysis selection buffer, and 10 μL of a coprecipitating agent (Quick-Precip Plus Solution, manufactured by EdgeBio) and 220 μL of 100% ethanol were added, followed by centrifugation at 20,000×g for 5 minutes. Subsequently, the supernatant was discarded, and 1 mL of 70, ethanol was added for rinsing. […] The PCR program was (a) 98° C. for 2 minutes, (b) 95° C. for 20 seconds, (c) 69° C. for 20 seconds, (d) 72° C. for 20 seconds (steps (b) to (d) were performed 25 cycles), and (e) 72° C. for 1 minute.
After the in vitro selection cycle (7 cycles for GII.4 and 5 cycles for GII.3 and GII.17 based on the libraries of 7 cycles obtained by GII.4 dialysis), a sequence library was prepared by the following method, and the sequence information was analyzed. The preparation of the sequence library and the sequencing were performed according to the 16S Metagenomic Sequencing Library Preparation protocol (manufactured by Illumina, Inc.).
The Fastq file of the obtained sequence was converted to a Fasta file, all of the obtained sequences were simultaneously translated from the first base of the start codon (ATG) at position 115 to the third base of the cysteine codon (TGC) at position 156 of the library sequence (SEQ ID NO: 279) using software MEGA.

GII.3 VLP = assay: Calculation of KD value by bio-layer interferometry (BLI method); assay type: binding, norovirus; conditions: BLItz, GII.3 VLP 1 and 0.1 mg/mL; for Kd: biotinylated peptide 100 μM on SA chip, calculated from ka and kd; for ka / kd: peptide 100 μM on SA chip
Method: <Calculation of KD Value by Bio-Layer Interferometry: BLI Method>
The apparatus used was BLItz™ (manufactured by ForteBio). The tip of SA chip (manufactured by ForteBio) was kept in contact with purified water for 1 minute for hydration and was then kept in contact with a 1% BSA aqueous solution for 1 hour for blocking. The SA chip subjected to blocking treatment was set to the measuring unit of the BLItz™ main body, and measurement was performed according to the program shown in Table 14. The peptides of SEQ ID NOs: 1, 21, and 28 were used, and the concentration was adjusted to 100 μM. The concentration of the GII.3 VLP was adjusted to 1 and 0.1 mg/mL. The measurement data were analyzed using the attached software, and the KD value was calculated based on the Ka and Kd values.

[2] = target: GII.3 VLP (norovirus GII.3 TCH strain); assay: BLI (BLItz), biotin peptide on SA chip, GII.3 VLP at 1 and 0.1 mg/mL

Q: Which “Appearance Frequency” value [1] does the source give for “248 (SHWRSY; Designed peptide) [compound 248]” here?
A: The value was 6.

Q: For “249 (SIITRR; Designed peptide) [compound 249]”, which “Appearance Frequency” value [1] is on record?
A: Its value is 6.

Q: For “250 (SKVIRW; Designed peptide) [compound 250]”, which “Appearance Frequency” value [1] is on record?
A: The value was 6.

Q: “251 (SKYTAL; Designed peptide) [compound 251]” was tested. Which “Appearance Frequency” value [1] did it give?
A: Its value is 6.

Q: “252 (SRSHWG; Designed peptide) [compound 252]” was tested. Which “Appearance Frequency” value [1] did it give?
A: The value was 6.

Q: With “253 (SSKSFA; Designed peptide) [compound 253]” as the molecule, how does the “Appearance Frequency” value [1] read?
A: Its value is 6.

Q: How did the “Appearance Frequency” value [1] turn out when “254 (STEFAR; Designed peptide) [compound 254]” was run?
A: Its value is 6.

Q: For “255 (STLVCP; Designed peptide) [compound 255]”, which “Appearance Frequency” value [1] is on record?
A: The value was 6.

Q: “256 (STSVDW; Designed peptide) [compound 256]” was tested. Which “Appearance Frequency” value [1] did it give?
A: Its value is 6.

Q: “257 (TNRTVS; Designed peptide) [compound 257]” was tested. Which “Appearance Frequency” value [1] did it give?
A: The value was 6.

Q: With “258 (TNYLSF; Designed peptide) [compound 258]” as the molecule, how does the “Appearance Frequency” value [1] read?
A: Its value is 6.

Q: How did the “Appearance Frequency” value [1] turn out when “259 (VGMHHS; Designed peptide) [compound 259]” was run?
A: The value was 6.

Q: “260 (VMSPCN; Designed peptide) [compound 260]” was tested. Which “Appearance Frequency” value [1] did it give?
A: Its value is 6.

Q: “261 (VPFPHH; Designed peptide) [compound 261]” was tested. Which “Appearance Frequency” value [1] did it give?
A: The value was 6.

Q: How did the “Appearance Frequency” value [1] turn out when “262 (VPLLSR; Designed peptide) [compound 262]” was run?
A: The value was 6.

Q: With “263 (VSDPVV; Designed peptide) [compound 263]” as the molecule, how does the “Appearance Frequency” value [1] read?
A: Its value is 6.

Q: “264 (WTMSPA; Designed peptide) [compound 264]” was tested. Which “Appearance Frequency” value [1] did it give?
A: Its value is 6.

Q: “265 (WVFVKH; Designed peptide) [compound 265]” was tested. Which “Appearance Frequency” value [1] did it give?
A: Its value is 6.

Q: Which “Appearance Frequency” value [1] does the source give for “266 (YGKQRG; Designed peptide) [compound 266]” here?
A: Its value is 6.

Q: For “267 (YKASHG; Designed peptide) [compound 267]”, which “Appearance Frequency” value [1] is on record?
A: Its value is 6.

Q: “268 (YRSNHG; Designed peptide) [compound 268]” was tested. Which “Appearance Frequency” value [1] did it give?
A: Its value is 6.

Q: Which “Appearance Frequency” value [1] does the source give for “269 (YYPDHP; Designed peptide) [compound 269]” here?
A: Its value is 6.

Q: What does the source list for GKFFCH [SEQ ID NO: 21]?
A: Kd (GII.3 VLP): 107 µM; ka (GII.3 VLP): 358 M⁻¹ s⁻¹; kd (GII.3 VLP): 0.0382 s⁻¹

Q: With GRRYYI [SEQ ID NO: 1] as the molecule, how does the Kd (GII.3 VLP) read?
A: The Kd was 6.01 µM.

Q: What about the ka (GII.3 VLP) of the same molecule?
A: Its ka is 9070 M⁻¹ s⁻¹.

Q: What about the kd (GII.3 VLP) of the same molecule?
A: The kd was 0.0546 s⁻¹.

Q: How did the Kd (GII.3 VLP) turn out when VMMQCP [SEQ ID NO: 28] was run?
A: The Kd was 218 µM.

Q: What about the ka (GII.3 VLP) of the same molecule?
A: The ka was 230 M⁻¹ s⁻¹.

Q: And the kd (GII.3 VLP)?
A: Its kd is 0.05 s⁻¹.

Q: What does the source list for VMMQCP (also: spacer with Trp and biotin, letters and position not given here) [peptide of SEQ ID NO: 28, synthesized, with spacer sequence and biotin]?
A: Kd [2]: 218 µM; koff [2]: 0.05 s⁻¹; kon [2]: 230 M⁻¹ s⁻¹

Q: Which results are given for GRRYYI (also: spacer with Trp and biotin, letters and position not given here) [peptide of SEQ ID NO: 1, synthesized, with spacer sequence and biotin]?
A: Kd [2]: 6.01 µM; koff [2]: 0.0546 s⁻¹; kon [2]: 9070 M⁻¹ s⁻¹

Q: What does the source list for GKFFCH (also: spacer with Trp and biotin, letters and position not given here) [peptide of SEQ ID NO: 21, synthesized, with spacer sequence and biotin]?
A: Kd [2]: 107 µM; koff [2]: 0.0382 s⁻¹; kon [2]: 358 M⁻¹ s⁻¹
